Each molecule was assayed on MCF-7, clone WS8, cells (assay: MCF-7 cell proliferation assay of estrogenic activity). Details: logarithmic value (base 10) of Relative Proliferative Effect in the MCF-7 assay; table gives 'expected or measured' values.
Assay type: cell-based, human
Excerpt: The MCF-7 assay is a useful test for assessing whether a polyhydric phenol compound is appreciably non-estrogenic. The MCF-7 assay uses MCF-7, clone WS8, cells to measure whether and to what extent a substance induces cell proliferation via estrogen receptor (ER)-mediated pathways. The method is described in “Test Method Nomination: MCF-7 Cell Proliferation Assay of Estrogenic Activity” submitted for validation by CertiChem, Inc. to the National Toxicology Program Interagency Center for the Evaluation of Alternative Toxicological Methods (NICEATM) on Jan. 19, 2006 (available online at http://iccvam.niehs.nih.gov/methods/endocrine/endodocs/SubmDoc.pdf).
A brief summary of the method of the aforementioned MCF-7 assay is provided below. MCF-7, clone WS8, cells are maintained at 37° C. in RMPI (or Roswell Park Memorial Institute medium) containing Phenol Red (e.g., GIBCO Catalog Number 11875119) and supplemented with the indicated additives for routine culture. An aliquot of cells maintained at 37° C. are grown for 2 days in phenol-free media containing 5% charcoal stripped fetal bovine serum in a 25 cm^2 tissue culture flask. Using a robotic dispenser such as an epMotion 5070 unit, MCF-7 cells are then seeded at 400 cells per well in 0.2 ml of hormone-free culture medium in Corning 96-well plates. The cells are adapted for 3 days in the hormone-free culture medium prior to adding the chemical to be assayed for estrogenic activity. The media containing the test chemical is replaced daily for 6 days. At the end of the 7-day exposure to the test chemical, the media is removed, the wells are washed once with 0.2 ml of HBSS (Hanks' Balanced Salt Solution), and then assayed to quantify amounts of DNA per well using a micro-plate modification of the Burton diphenylamine (DPA) assay, which is used to calculate the level of cell proliferation.
RPE is the ratio between the EC50 of the test chemical and the EC50 of the control substance 17-beta estradiol times 100, where EC50 is “effective concentration […]” or half-maximum stimulation concentration for cell proliferation measured as total DNA in the MCF-7 assay.

Compound | Log RPE
CC(C(=O)O)(c1ccc(O)cc1)c1ccc(O)cc1 [Structure 5] | less than −4
CC(C)(c1cc(Br)c(O)c(Br)c1)c1cc(Br)c(O)c(Br)c1 [Structure 16] | −3
CC(c1ccccc1)(c1ccc(O)cc1)c1ccc(O)cc1 [Structure 4] | −3
C[C@]12CC[C@@H]3c4ccc(O)cc4CC[C@H]3[C@@H]1CC[C@@H]2O [17β-estradiol, reference compound] | 2.00
CC(C)(C)c1cc(O)c(C(C)(C)C)cc1O [Structure 12] | less than −4
C/C=C(/C(=C/C)c1ccc(O)cc1)c1ccc(O)cc1 [dienestrol, reference compound] | about 2
Oc1ccccc1Cc1ccccc1O [Structure 11] | less than −4
CC(C)(c1ccc(O)cc1)c1ccc(C(C)(C)c2ccc(O)cc2)cc1 [Structure 10] | less than −4
Oc1ccc(Cc2ccc(O)cc2)cc1 [Bisphenol F, reference compound] | −2
CCCC(c1cc(C(C)(C)C)c(O)cc1C)c1cc(C(C)(C)C)c(O)cc1C [Structure 7] | less than −4
CC(c1ccc(O)cc1)(c1ccc(O)cc1)c1ccc(O)cc1 [Structure 3] | −3
O=c1c(-c2ccc(O)cc2)coc2cc(O)cc(O)c12 [Genistein, reference compound] | −2
CC/C(=C(/CC)c1ccc(O)cc1)c1ccc(O)cc1 [diethylstilbestrol, reference compound] | about 2
O=S(=O)(c1ccc(O)cc1)c1ccc(O)cc1 [Bisphenol S, reference compound] | −2

From patent US12043448B2, “Compositions for containers and other articles and methods of using same” (SWIMC LLC, priority 2012, dated 2024)
